Test results as given in ChEMBL document CHEMBL4145540 (Eur J Med Chem, 2018).
Calls of active or inactive are those of the source. The calls are words filed in the database; no cut-off is given here.

Tests used:
[1] = test system: HT-29; experiment: Antiproliferative activity against human HT-29 cells after 2 days by MTT assay; assay type: functional, cell-based; details: HT-29, 48 h
[2] = test system: MCF7; experiment: Antiproliferative activity against human MCF7 cells after 2 days by MTT assay; assay type: functional, cell-based; details: MCF7, 48 h
[3] = test system: HeLa; experiment: Antiproliferative activity against human HeLa cells after 2 days by MTT assay; assay type: functional, cell-based; details: 48 h
[4] = test system: A549; experiment: Antiproliferative activity against human A549 cells after 2 days by MTT assay; assay type: functional, cell-based; details: A549, 48 h
[5] = test system: HL-60; experiment: Antiproliferative activity against human HL60 cells after 2 days by MTT assay; assay type: functional, cell-based; details: HL-60, 48 h
[6] = test system: HMEC-1; experiment: Antiproliferative activity against HMEC1 cells after 2 days by MTT assay; assay type: functional, cell-based; details: Homo sapiens, HMEC-1, 48 h
[7] = test system: HEK293; experiment: Antiproliferative activity against HEK293 cells after 2 days by MTT assay; assay type: cell-based; details: Homo sapiens, HEK293, 48 h
[8] = test system: MDA-MB-231; experiment: Antiproliferative activity against human MDA-MB-231 cells after 3 days by coulter counting method; assay type: functional, cell-based; details: MDA-MB-231, 72 h
[9] = Selectivity index, ratio of IC50 for antiproliferative activity against HEK293 cells to IC50 for antiproliferative activity against human MCF7 cells; assay type: toxicity, cell-based; details: HEK293 cells versus MCF7 cells, read-out: Ratio IC50
[10] = Selectivity index, ratio of IC50 for antiproliferative activity against HEK293 cells to IC50 for antiproliferative activity against human HT-29 cells; assay type: toxicity, cell-based; details: HEK293 cells versus HT-29 cells, read-out: Ratio IC50
[11] = Selectivity index, ratio of IC50 for antiproliferative activity against HEK293 cells to IC50 for antiproliferative activity against human HeLa cells; assay type: toxicity, cell-based; details: HEK293 cells versus HeLa cells, read-out: Ratio IC50
[12] = Selectivity index, ratio of IC50 for antiproliferative activity against HEK293 cells to IC50 for antiproliferative activity against human HL60 cells; assay type: toxicity, cell-based; details: HEK293 cells versus HL60 cells, read-out: Ratio IC50
[13] = species: Bos taurus; experiment: Inhibition of calf brain tubulin polymerization after 60 mins by turbidimetric method
[14] = test system: A549; experiment: Cell cycle arrest in human A549 cells assessed as accumulation at sub-G0 phase at 50 nM after 20 hrs by propidium iodide staining based flow cytometry (reference value: 6.6 +/- 0.1%); assay type: functional
[15] = test system: A549; experiment: Disruption of microtubule network in human A549 cells assessed as appearance of tubulin aggregates at 200 nM after 16 hrs by Hoechst staining based immunofluorescence assay; assay type: cell-based
[16] = test system: A549; experiment: Disruption of microtubule network in human A549 cells assessed as appearance of compressed and fragmented nuclei at 200 nM after 16 hrs by Hoechst staining based immunofluorescence assay; assay type: cell-based
[17] = test system: A549; experiment: Cell cycle arrest in human A549 cells assessed as accumulation at G0/G1 phase at 50 nM after 20 hrs by propidium iodide staining based flow cytometry (reference value: 66 +/- 1%); assay type: functional
[18] = test system: A549; experiment: Cell cycle arrest in human A549 cells assessed as accumulation at S phase at 50 nM after 20 hrs by propidium iodide staining based flow cytometry (reference value: 16 +/- 1%); assay type: functional
[19] = test system: A549; experiment: Cell cycle arrest in human A549 cells assessed as accumulation at G2/M phase at 50 nM after 20 hrs by propidium iodide staining based flow cytometry (reference value: 11 +/- 1%); assay type: functional
[20] = test system: A549; experiment: Induction of apoptosis in human A549 cells at 100 nM after 24 hrs by Annexin V-FITC/propidium iodide staining based flow cytometry (reference value: 28%); assay type: functional
[21] = test system: A549; experiment: Induction of apoptosis in human A549 cells at 10 nM after 24 hrs by Annexin V-FITC/propidium iodide staining based flow cytometry (reference value: 28%); assay type: functional
[22] = test system: A549; experiment: Induction of apoptosis in human A549 cells after 24 hrs by Annexin V-FITC/propidium iodide staining based flow cytometry; assay type: functional, cell-based
[23] = test system: A549; experiment: Cell cycle arrest in human A549 cells assessed as accumulation at sub-G0 phase at 90 nM after 20 hrs by propidium iodide staining based flow cytometry (reference value: 6.6 +/- 0.1%); assay type: functional
[24] = test system: A549; experiment: Cell cycle arrest in human A549 cells assessed as accumulation at G0/G1 phase at 90 nM after 20 hrs by propidium iodide staining based flow cytometry (reference value: 66 +/- 1%); assay type: functional
[25] = test system: A549; experiment: Cell cycle arrest in human A549 cells assessed as accumulation at S phase at 90 nM after 20 hrs by propidium iodide staining based flow cytometry (reference value: 16 +/- 1%); assay type: functional
[26] = test system: A549; experiment: Cell cycle arrest in human A549 cells assessed as accumulation at G2/M phase at 90 nM after 20 hrs by propidium iodide staining based flow cytometry (reference value: 11 +/- 1%); assay type: functional
[27] = test system: A549; experiment: Disruption of microtubule network in human A549 cells assessed as appearance of tubulin aggregates at 300 nM after 16 hrs by Hoechst staining based immunofluorescence assay; assay type: cell-based
[28] = test system: A549; experiment: Disruption of microtubule network in human A549 cells assessed as appearance of compressed and fragmented nuclei at 300 nM after 16 hrs by Hoechst staining based immunofluorescence assay; assay type: cell-based
[29] = test system: A549; experiment: Cell cycle arrest in human A549 cells assessed as accumulation at sub-G0 phase at 75 nM after 20 hrs by propidium iodide staining based flow cytometry (reference value: 6.6 +/- 0.1%); assay type: functional
[30] = test system: A549; experiment: Cell cycle arrest in human A549 cells assessed as accumulation at G0/G1 phase at 75 nM after 20 hrs by propidium iodide staining based flow cytometry (reference value: 66 +/- 1%); assay type: functional
[31] = test system: A549; experiment: Cell cycle arrest in human A549 cells assessed as accumulation at S phase at 75 nM after 20 hrs by propidium iodide staining based flow cytometry (reference value: 16 +/- 1%); assay type: functional
[32] = test system: A549; experiment: Cell cycle arrest in human A549 cells assessed as accumulation at G2/M phase at 75 nM after 20 hrs by propidium iodide staining based flow cytometry (reference value: 11 +/- 1%); assay type: functional

IC50 [1]	IC50 [2]	IC50 [3]	IC50 [4]	IC50 [5]	IC50 [8]	inhibition [13]	Structure (SMILES)	IC50 [6]	IC50 [7]	Activity [20]	Activity [21]	Activity [22]	further results
9.2 nM	4.4 nM	4.79 nM	100 nM	13.5 nM	15.1 nM	Active	COc1ccc(/C=C\c2cc(OC)c(OC)c(OC)c2)cc1NC(=O)Oc1cccc(Cl)c1	9 nM	14.5 nM	93%	29%	Dose-dependent effect	selectivity ratio [9]: 2 to 11; selectivity ratio [10]: 2 to 11; selectivity ratio [11]: 2 to 11; selectivity ratio [12]: 2 to 11; Activity [14]: 16%; Activity [15]: Active; Activity [16]: Active; Activity [17]: 30%; Activity [18]: 10%; Activity [19]: 44%
7.5 nM	18.9 nM	2.6 nM	180 nM	3 nM	13.4 nM	–	COc1ccc(/C=C\c2cc(OC)c(OC)c(OC)c2)cc1NC(=O)Oc1ccccc1Br	22 nM	8 nM	–	–	–	Activity [23]: 17%; Activity [24]: 29%; Activity [25]: 10%; Activity [26]: 44%
10.6 nM	7 nM	2.7 nM	150 nM	60 nM	14.8 nM	Active	COc1ccc(/C=C\c2cc(OC)c(OC)c(OC)c2)cc1NC(=O)Oc1cccc(F)c1	20 nM	13.2 nM	67%	26%	Dose-dependent effect	Activity [27]: Active; Activity [28]: Active; Activity [29]: 19%; Activity [30]: 29%; Activity [31]: 10%; Activity [32]: 43%
